# Experimental data as given in PubChem BioAssay AID1963445 (Molecular Pharmacology Branch, DTP, NCI, 2024).
# Tested on: MCF7 complex spheroid growth, % test/control
# Test: Anticancer human tumor MCF7 cell line growth inhibition [Asc];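 note: spheroids exposed to compounds for 7 days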;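 for viability, T/C: 100% = DMSO vehicle control wells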
# Conditions: for IC50: curve of first compound; for viability, T/C: stronger effect = lower value
# How it was run: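 Tumor cells were grown as complex spheroids with human endothelial cells (HUVEC) and human mesenchymal stem cells as stroma. Agents were tested alone and in combination, in half-log steps down from the clinical Cmax, or from 10 microM where Cmax was unknown.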
# [1] = second compound 0.00316 µM, first compound 0.0316 µM
# [2] = second compound 0.00316 µM, first compound 0.1 µM
# [3] = second compound 0.01 µM, first compound 0.0316 µM
# [4] = second compound 0.01 µM, first compound 0.1 µM
# [5] = second compound 0.0316 µM, first compound 0.0316 µM
# [6] = second compound 0.0316 µM, first compound 0.1 µM
# [7] = second compound 0.1 µM, first compound 0.0316 µM
# [8] = second compound 0.1 µM, first compound 0.1 µM
# [9] = second compound 0.316 µM, first compound 0.0316 µM
# [10] = second compound 0.316 µM, first compound 0.1 µM
# [11] = second compound 1 µM, first compound 0.0316 µM
# [12] = second compound 1 µM, first compound 0.1 µM
structure (smiles),measurement,setting,value
Cc1nc(N2CCC3(CC2)COC(C)C3N)c(CO)nc1Sc1ccnc(N)c1Cl (stereo unspecified) + CCN1C(C(=O)NC23CCC(C(=O)O)(CC2)CC3)C(c2cccc(Cl)c2F)C2(C(=O)Nc3cc(Cl)ccc32)C12CCCCC2,IC50,second compound 0.00949 µM,1380 nM
same,IC50,second compound 0.03 µM,493 nM
same,IC50,second compound 0.0949 µM,< 9.49 nM
same,IC50,second compound 0.3 µM,< 9.49 nM
same,IC50,second compound 0.949 µM,< 9.49 nM
same,IC50,second compound 3 µM,< 9.49 nM
same,"viability, T/C","second compound 0.00949 µM, first compound 0.00949 µM",109%
same,"viability, T/C","second compound 0.00949 µM, first compound 0.03 µM",115%
same,"viability, T/C","second compound 0.00949 µM, first compound 0.0949 µM",94.4%
same,"viability, T/C","second compound 0.00949 µM, first compound 0.3 µM",99.9%
same,"viability, T/C","second compound 0.00949 µM, first compound 0.949 µM",66.8%
same,"viability, T/C","second compound 0.00949 µM, first compound 3 µM",12.5%
same,"viability, T/C","second compound 0.03 µM, first compound 0.00949 µM",86.4%
same,"viability, T/C","second compound 0.03 µM, first compound 0.03 µM",79.1%
same,"viability, T/C","second compound 0.03 µM, first compound 0.0949 µM",88.5%
same,"viability, T/C","second compound 0.03 µM, first compound 0.3 µM",77.3%
same,"viability, T/C","second compound 0.03 µM, first compound 0.949 µM",14%
same,"viability, T/C","second compound 0.03 µM, first compound 3 µM",11.1%
same,"viability, T/C","second compound 0.0949 µM, first compound 0.00949 µM",50.3%
same,"viability, T/C","second compound 0.0949 µM, first compound 0.03 µM",41.9%
same,"viability, T/C","second compound 0.0949 µM, first compound 0.0949 µM",43.7%
same,"viability, T/C","second compound 0.0949 µM, first compound 0.3 µM",29.9%
same,"viability, T/C","second compound 0.0949 µM, first compound 0.949 µM",9.42%
same,"viability, T/C","second compound 0.0949 µM, first compound 3 µM",10.3%
same,"viability, T/C","second compound 0.3 µM, first compound 0.00949 µM",26%
same,"viability, T/C","second compound 0.3 µM, first compound 0.03 µM",22.8%
same,"viability, T/C","second compound 0.3 µM, first compound 0.0949 µM",20.8%
same,"viability, T/C","second compound 0.3 µM, first compound 0.3 µM",18.5%
same,"viability, T/C","second compound 0.3 µM, first compound 0.949 µM",5.2%
same,"viability, T/C","second compound 0.3 µM, first compound 3 µM",7.09%
same,"viability, T/C","second compound 0.949 µM, first compound 0.00949 µM",13.7%
same,"viability, T/C","second compound 0.949 µM, first compound 0.03 µM",13.6%
same,"viability, T/C","second compound 0.949 µM, first compound 0.0949 µM",12.8%
same,"viability, T/C","second compound 0.949 µM, first compound 0.3 µM",6.58%
same,"viability, T/C","second compound 0.949 µM, first compound 0.949 µM",5.44%
same,"viability, T/C","second compound 0.949 µM, first compound 3 µM",5.91%
same,"viability, T/C","second compound 3 µM, first compound 0.00949 µM",11.4%
same,"viability, T/C","second compound 3 µM, first compound 0.03 µM",8.37%
same,"viability, T/C","second compound 3 µM, first compound 0.0949 µM",10.1%
same,"viability, T/C","second compound 3 µM, first compound 0.3 µM",6.66%
same,"viability, T/C","second compound 3 µM, first compound 0.949 µM",6.63%
same,"viability, T/C","second compound 3 µM, first compound 3 µM",11.7%
Cn1ncnc1[C@H]1c2n[nH]c(=O)c3cc(F)cc(c23)N[C@@H]1c1ccc(F)cc1 + CNC(C)C(=O)NC1CN(S(=O)(=O)c2cccc(S(=O)(=O)N3CCC4CCC(C(=O)NC(c5ccccc5)c5ccccc5)N4C(=O)C(NC(=O)C(C)NC)C3)c2)CCC2CCC(C(=O)NC(c3ccccc3)c3ccccc3)N2C1=O,IC50,second compound 0.00316 µM,< 0.316 nM
same,IC50,second compound 0.01 µM,< 0.316 nM
same,IC50,second compound 0.0316 µM,< 0.316 nM
same,IC50,second compound 0.1 µM,< 0.316 nM
same,IC50,second compound 0.316 µM,< 0.316 nM
same,IC50,second compound 1 µM,< 0.316 nM
same,"viability, T/C","second compound 0.00316 µM, first compound 0.000316 µM",13.7%
same,"viability, T/C","second compound 0.00316 µM, first compound 0.001 µM",11.2%
same,"viability, T/C","second compound 0.00316 µM, first compound 0.00316 µM",11.4%
same,"viability, T/C","second compound 0.00316 µM, first compound 0.01 µM",13.2%
same,"viability, T/C",[1],12.5%
same,"viability, T/C",[2],10.1%
same,"viability, T/C","second compound 0.01 µM, first compound 0.000316 µM",12.8%
same,"viability, T/C","second compound 0.01 µM, first compound 0.001 µM",12.4%
same,"viability, T/C","second compound 0.01 µM, first compound 0.00316 µM",14.8%
same,"viability, T/C","second compound 0.01 µM, first compound 0.01 µM",12.8%
same,"viability, T/C",[3],12.4%
same,"viability, T/C",[4],12.7%
same,"viability, T/C","second compound 0.0316 µM, first compound 0.000316 µM",10.1%
same,"viability, T/C","second compound 0.0316 µM, first compound 0.001 µM",10.7%
same,"viability, T/C","second compound 0.0316 µM, first compound 0.00316 µM",12.2%
same,"viability, T/C","second compound 0.0316 µM, first compound 0.01 µM",9.67%
same,"viability, T/C",[5],9.98%
same,"viability, T/C",[6],12.2%
same,"viability, T/C","second compound 0.1 µM, first compound 0.000316 µM",11.1%
same,"viability, T/C","second compound 0.1 µM, first compound 0.001 µM",14.1%
same,"viability, T/C","second compound 0.1 µM, first compound 0.00316 µM",11.7%
same,"viability, T/C","second compound 0.1 µM, first compound 0.01 µM",11.5%
same,"viability, T/C",[7],10.3%
same,"viability, T/C",[8],11.4%
same,"viability, T/C","second compound 0.316 µM, first compound 0.000316 µM",10.9%
same,"viability, T/C","second compound 0.316 µM, first compound 0.001 µM",10.8%
same,"viability, T/C","second compound 0.316 µM, first compound 0.00316 µM",13%
same,"viability, T/C","second compound 0.316 µM, first compound 0.01 µM",11.1%
same,"viability, T/C",[9],11.9%
same,"viability, T/C",[10],12.8%
same,"viability, T/C","second compound 1 µM, first compound 0.000316 µM",14.7%
same,"viability, T/C","second compound 1 µM, first compound 0.001 µM",13.5%
same,"viability, T/C","second compound 1 µM, first compound 0.00316 µM",12.3%
same,"viability, T/C","second compound 1 µM, first compound 0.01 µM",12.8%
same,"viability, T/C",[11],9.82%
same,"viability, T/C",[12],13.9%
O=C(c1cc(Cc2n[nH]c(=O)c3ccccc23)ccc1F)N1CCN(C(=O)C2CC2)CC1 + CNC(C)C(=O)NC1CN(S(=O)(=O)c2cccc(S(=O)(=O)N3CCC4CCC(C(=O)NC(c5ccccc5)c5ccccc5)N4C(=O)C(NC(=O)C(C)NC)C3)c2)CCC2CCC(C(=O)NC(c3ccccc3)c3ccccc3)N2C1=O,IC50,second compound 0.00316 µM,< 31.6 nM
same,IC50,second compound 0.01 µM,< 31.6 nM
same,IC50,second compound 0.0316 µM,< 31.6 nM
same,IC50,second compound 0.1 µM,< 31.6 nM
same,IC50,second compound 0.316 µM,< 31.6 nM
same,IC50,second compound 1 µM,< 31.6 nM
same,"viability, T/C",[1],10.6%
same,"viability, T/C",[2],15.2%
same,"viability, T/C","second compound 0.00316 µM, first compound 0.316 µM",8.86%
same,"viability, T/C","second compound 0.00316 µM, first compound 1 µM",10.7%
same,"viability, T/C","second compound 0.00316 µM, first compound 3.16 µM",10.2%
same,"viability, T/C","second compound 0.00316 µM, first compound 10 µM",11.4%
same,"viability, T/C",[3],16.2%
same,"viability, T/C",[4],14.4%
same,"viability, T/C","second compound 0.01 µM, first compound 0.316 µM",14.5%
same,"viability, T/C","second compound 0.01 µM, first compound 1 µM",15.3%
same,"viability, T/C","second compound 0.01 µM, first compound 3.16 µM",16.9%
same,"viability, T/C","second compound 0.01 µM, first compound 10 µM",14%
same,"viability, T/C",[5],13.8%
same,"viability, T/C",[6],12%
same,"viability, T/C","second compound 0.0316 µM, first compound 0.316 µM",11.5%
same,"viability, T/C","second compound 0.0316 µM, first compound 1 µM",13.1%
same,"viability, T/C","second compound 0.0316 µM, first compound 3.16 µM",11.4%
same,"viability, T/C","second compound 0.0316 µM, first compound 10 µM",12.3%
same,"viability, T/C",[7],13%
same,"viability, T/C",[8],13.8%
same,"viability, T/C","second compound 0.1 µM, first compound 0.316 µM",11.8%
same,"viability, T/C","second compound 0.1 µM, first compound 1 µM",13.8%
same,"viability, T/C","second compound 0.1 µM, first compound 3.16 µM",12.1%
same,"viability, T/C","second compound 0.1 µM, first compound 10 µM",11.4%
same,"viability, T/C",[9],14.7%
same,"viability, T/C",[10],12.3%
same,"viability, T/C","second compound 0.316 µM, first compound 0.316 µM",11.8%
same,"viability, T/C","second compound 0.316 µM, first compound 1 µM",12.3%
same,"viability, T/C","second compound 0.316 µM, first compound 3.16 µM",11.3%
same,"viability, T/C","second compound 0.316 µM, first compound 10 µM",13.5%
same,"viability, T/C",[11],11.1%
same,"viability, T/C",[12],10.9%
same,"viability, T/C","second compound 1 µM, first compound 0.316 µM",13.7%
same,"viability, T/C","second compound 1 µM, first compound 1 µM",10.9%
same,"viability, T/C","second compound 1 µM, first compound 3.16 µM",11.9%
same,"viability, T/C","second compound 1 µM, first compound 10 µM",14.3%
